In one series the target is T1, ADRA2A (Homo sapiens, UniProt P08913).
T1 construct: host or cells: CHO
As to the kind of experiment: PathHunter β-arrestin assay. The series is classed as cell-based. Particulars: antagonist mode vs EC80 of control agonist, 10-point curve.

The target in a further series is ADRA2B (Homo sapiens, UniProt P18089). The series is classed as cell-based.
The next series deals with CHRM3 (Homo sapiens, UniProt P20309). It is filed as cell-based.
For another series, the target named is GPR35 (Homo sapiens, UniProt Q9HC97). As to the kind of experiment: PathHunter β-arrestin assay. The series is classed as cell-based. Particulars: antagonist mode, up to 30 μM.
Chain of GPR35 (Q9HC97 whole entry): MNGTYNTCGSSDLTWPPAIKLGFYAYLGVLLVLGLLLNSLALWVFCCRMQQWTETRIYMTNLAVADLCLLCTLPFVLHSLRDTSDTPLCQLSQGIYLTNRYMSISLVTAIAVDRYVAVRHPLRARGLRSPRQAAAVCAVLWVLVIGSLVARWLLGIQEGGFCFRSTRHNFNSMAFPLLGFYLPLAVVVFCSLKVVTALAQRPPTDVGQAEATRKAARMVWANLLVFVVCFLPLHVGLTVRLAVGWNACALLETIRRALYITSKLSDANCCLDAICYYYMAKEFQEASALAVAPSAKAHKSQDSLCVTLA
The next series addresses T2, CCR10 (Homo sapiens, UniProt P46092).
T2 sequence (P46092 1-362): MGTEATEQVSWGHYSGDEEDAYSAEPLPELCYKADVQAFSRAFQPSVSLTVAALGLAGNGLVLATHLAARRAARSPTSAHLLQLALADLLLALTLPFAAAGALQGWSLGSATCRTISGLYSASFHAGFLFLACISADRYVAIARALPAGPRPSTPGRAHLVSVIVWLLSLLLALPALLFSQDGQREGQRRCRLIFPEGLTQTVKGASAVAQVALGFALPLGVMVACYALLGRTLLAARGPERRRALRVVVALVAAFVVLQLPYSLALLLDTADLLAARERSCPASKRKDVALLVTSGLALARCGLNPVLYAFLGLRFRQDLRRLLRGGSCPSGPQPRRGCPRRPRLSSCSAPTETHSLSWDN
As to the kind of experiment: PathHunter β-arrestin assay. The series is classed as cell-based. Conditions: antagonist mode vs EC80 of control agonist, 10-point curve. In outline:
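Concentration-response testing covered 1.5–30 μM in 10 points. Where run as antagonist, the assay used EC80 agonist challenge. Plates were accepted at Z' >0.5.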

A further series deals with T3, CCR6 (Homo sapiens, UniProt P51684).
T3 construct: purchased Eurofins DiscoverX (PathHunter gpcrMAX)
T3 sequence (P51684 1-374): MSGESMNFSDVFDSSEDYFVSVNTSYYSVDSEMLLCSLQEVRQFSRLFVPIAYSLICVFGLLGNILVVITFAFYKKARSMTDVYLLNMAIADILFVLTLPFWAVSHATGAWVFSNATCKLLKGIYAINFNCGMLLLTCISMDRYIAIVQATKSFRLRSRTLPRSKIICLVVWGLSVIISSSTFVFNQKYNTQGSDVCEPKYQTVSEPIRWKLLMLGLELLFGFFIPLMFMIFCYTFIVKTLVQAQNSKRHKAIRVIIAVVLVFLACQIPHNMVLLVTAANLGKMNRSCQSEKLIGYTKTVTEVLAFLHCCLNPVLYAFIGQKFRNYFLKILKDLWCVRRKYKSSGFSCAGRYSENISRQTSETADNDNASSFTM
As to the kind of experiment: PathHunter β-arrestin assay. It is filed as cell-based. Conditions: antagonist mode, up to 30 μM.

The next series addresses T4, CCR9 (Homo sapiens, UniProt P51686).
T4 construct: purchased Eurofins DiscoverX (PathHunter gpcrMAX)
T4 sequence (P51686 1-369): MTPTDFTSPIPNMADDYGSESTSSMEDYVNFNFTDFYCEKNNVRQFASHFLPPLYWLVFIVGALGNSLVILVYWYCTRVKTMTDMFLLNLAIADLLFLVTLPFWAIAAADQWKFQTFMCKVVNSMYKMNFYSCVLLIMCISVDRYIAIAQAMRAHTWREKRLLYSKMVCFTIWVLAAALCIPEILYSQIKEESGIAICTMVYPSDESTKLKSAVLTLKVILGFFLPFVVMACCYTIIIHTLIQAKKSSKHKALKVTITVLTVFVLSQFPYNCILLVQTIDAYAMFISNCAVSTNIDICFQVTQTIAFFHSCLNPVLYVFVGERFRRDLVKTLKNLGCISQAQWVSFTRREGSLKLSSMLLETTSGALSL
As to the kind of experiment: PathHunter β-arrestin assay. The series is classed as cell-based. Conditions: antagonist mode, up to 30 μM.

The next series concerns the target T5, HCRTR1 (Homo sapiens, UniProt O43613).
T5 sequence (O43613 1-425): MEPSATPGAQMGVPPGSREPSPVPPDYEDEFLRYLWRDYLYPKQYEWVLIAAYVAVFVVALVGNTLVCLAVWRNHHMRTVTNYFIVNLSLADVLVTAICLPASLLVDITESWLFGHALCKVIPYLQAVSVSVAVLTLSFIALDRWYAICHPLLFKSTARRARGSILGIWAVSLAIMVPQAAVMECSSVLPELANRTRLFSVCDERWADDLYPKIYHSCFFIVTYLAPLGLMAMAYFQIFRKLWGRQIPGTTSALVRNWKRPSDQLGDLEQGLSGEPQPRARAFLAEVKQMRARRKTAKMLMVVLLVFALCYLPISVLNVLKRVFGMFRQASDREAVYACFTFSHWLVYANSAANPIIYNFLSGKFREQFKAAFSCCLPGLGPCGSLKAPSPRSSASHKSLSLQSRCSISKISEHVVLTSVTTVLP
As to the kind of experiment: PathHunter β-arrestin assay. It is filed as cell-based.

The target of another series is T6, MRGPRX2 (Homo sapiens, UniProt Q96LB1).
T6 sequence (Q96LB1 1-330): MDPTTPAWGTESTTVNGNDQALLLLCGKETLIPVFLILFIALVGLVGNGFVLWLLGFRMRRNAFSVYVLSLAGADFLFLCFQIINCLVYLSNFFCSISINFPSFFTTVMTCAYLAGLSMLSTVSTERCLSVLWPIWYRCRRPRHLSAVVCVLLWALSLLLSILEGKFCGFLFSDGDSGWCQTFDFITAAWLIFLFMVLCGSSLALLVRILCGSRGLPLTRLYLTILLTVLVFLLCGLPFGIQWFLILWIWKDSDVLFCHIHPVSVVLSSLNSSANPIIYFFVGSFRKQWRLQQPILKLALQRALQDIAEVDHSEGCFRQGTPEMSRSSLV
As to the kind of experiment: PathHunter β-arrestin assay. It is filed as cell-based. Conditions: antagonist mode vs EC80 of control agonist, 10-point curve.

In a further series the target is P2RY6 (Homo sapiens, UniProt Q15077). As to the kind of experiment: PathHunter β-arrestin assay. It is filed as cell-based. Particulars: antagonist mode, up to 30 μM.
Chain of P2RY6 (Q15077 whole entry): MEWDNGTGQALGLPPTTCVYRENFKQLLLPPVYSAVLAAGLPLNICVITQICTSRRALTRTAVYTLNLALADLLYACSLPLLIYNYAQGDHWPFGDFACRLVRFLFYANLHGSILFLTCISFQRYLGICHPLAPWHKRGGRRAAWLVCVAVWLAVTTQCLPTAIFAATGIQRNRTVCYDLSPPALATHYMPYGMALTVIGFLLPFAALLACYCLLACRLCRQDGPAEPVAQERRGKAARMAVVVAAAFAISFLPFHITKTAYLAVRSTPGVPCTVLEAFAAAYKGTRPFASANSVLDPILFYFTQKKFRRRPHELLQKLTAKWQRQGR
For the next series, the target named is PTGER4 (Homo sapiens, UniProt P35408). As to the kind of experiment: PathHunter β-arrestin assay. The series is classed as cell-based. Particulars: antagonist mode vs EC80 of control agonist, 10-point curve.
Chain of PTGER4 (P35408 whole entry): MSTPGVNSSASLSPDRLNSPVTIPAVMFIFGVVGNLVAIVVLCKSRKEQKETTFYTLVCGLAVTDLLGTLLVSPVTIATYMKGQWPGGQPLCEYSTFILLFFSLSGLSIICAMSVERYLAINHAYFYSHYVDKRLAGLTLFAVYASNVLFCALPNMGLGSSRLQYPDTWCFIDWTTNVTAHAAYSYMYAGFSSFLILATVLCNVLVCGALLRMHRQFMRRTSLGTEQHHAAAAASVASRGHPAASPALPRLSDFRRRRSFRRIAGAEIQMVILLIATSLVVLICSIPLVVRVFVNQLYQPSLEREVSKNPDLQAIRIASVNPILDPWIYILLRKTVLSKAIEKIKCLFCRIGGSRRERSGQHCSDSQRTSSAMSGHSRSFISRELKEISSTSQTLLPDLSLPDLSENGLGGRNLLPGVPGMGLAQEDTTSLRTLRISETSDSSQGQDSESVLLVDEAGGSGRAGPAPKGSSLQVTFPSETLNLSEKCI
The target of the next series is MCHR1 (Homo sapiens, UniProt Q99705). As to the kind of experiment: PathHunter β-arrestin assay. The series is classed as cell-based. Particulars: antagonist mode, up to 30 μM.
Chain of MCHR1 (Q99705 whole entry): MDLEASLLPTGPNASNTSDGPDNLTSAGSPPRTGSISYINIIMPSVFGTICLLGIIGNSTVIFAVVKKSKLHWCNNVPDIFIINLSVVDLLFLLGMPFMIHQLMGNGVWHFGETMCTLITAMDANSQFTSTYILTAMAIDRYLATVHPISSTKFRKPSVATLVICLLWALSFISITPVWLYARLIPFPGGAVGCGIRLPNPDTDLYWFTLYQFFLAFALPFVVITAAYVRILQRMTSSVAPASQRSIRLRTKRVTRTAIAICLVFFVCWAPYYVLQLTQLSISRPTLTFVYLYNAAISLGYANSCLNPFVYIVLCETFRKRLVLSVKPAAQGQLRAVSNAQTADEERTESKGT
The target in another series is OXTR (Homo sapiens, UniProt P30559). As to the kind of experiment: PathHunter β-arrestin assay. Conditions: antagonist mode vs EC80 of control agonist, 10-point curve. It is filed as cell-based.
Chain of OXTR (P30559 whole entry): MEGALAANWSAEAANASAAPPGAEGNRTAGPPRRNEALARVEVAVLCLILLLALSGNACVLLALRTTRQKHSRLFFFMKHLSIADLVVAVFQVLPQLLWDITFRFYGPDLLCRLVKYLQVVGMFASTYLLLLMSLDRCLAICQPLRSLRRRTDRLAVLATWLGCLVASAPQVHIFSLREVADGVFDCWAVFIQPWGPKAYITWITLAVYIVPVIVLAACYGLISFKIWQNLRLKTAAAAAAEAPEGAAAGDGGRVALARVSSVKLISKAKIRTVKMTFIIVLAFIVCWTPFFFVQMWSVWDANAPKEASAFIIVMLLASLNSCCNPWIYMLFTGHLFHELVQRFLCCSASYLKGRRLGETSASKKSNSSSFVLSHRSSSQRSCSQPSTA
The target in another series is UTR2 (Homo sapiens, UniProt Q9UKP6). As to the kind of experiment: PathHunter β-arrestin assay. It is filed as cell-based. Conditions: antagonist mode, up to 30 μM.
Chain of UTR2 (Q9UKP6 whole entry): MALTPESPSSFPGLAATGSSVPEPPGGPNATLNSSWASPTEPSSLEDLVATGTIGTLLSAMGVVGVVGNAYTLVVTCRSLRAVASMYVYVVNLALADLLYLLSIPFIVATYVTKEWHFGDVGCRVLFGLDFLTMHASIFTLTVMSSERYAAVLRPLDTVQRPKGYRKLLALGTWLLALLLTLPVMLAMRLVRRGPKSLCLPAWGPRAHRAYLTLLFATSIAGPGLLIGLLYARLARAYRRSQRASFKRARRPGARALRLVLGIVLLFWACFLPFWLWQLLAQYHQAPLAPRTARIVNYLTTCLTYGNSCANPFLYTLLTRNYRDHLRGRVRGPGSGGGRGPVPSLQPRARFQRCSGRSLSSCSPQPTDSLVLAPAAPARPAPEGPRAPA
Details of series [1]: method as in PMID 35210552. Conditions: rats; cited from earlier work.

Each structure is given as a SMILES string. Entries after “also recorded” stand apart in the source; their conditions may differ.

Chain of ADRA2B (P18089 whole entry): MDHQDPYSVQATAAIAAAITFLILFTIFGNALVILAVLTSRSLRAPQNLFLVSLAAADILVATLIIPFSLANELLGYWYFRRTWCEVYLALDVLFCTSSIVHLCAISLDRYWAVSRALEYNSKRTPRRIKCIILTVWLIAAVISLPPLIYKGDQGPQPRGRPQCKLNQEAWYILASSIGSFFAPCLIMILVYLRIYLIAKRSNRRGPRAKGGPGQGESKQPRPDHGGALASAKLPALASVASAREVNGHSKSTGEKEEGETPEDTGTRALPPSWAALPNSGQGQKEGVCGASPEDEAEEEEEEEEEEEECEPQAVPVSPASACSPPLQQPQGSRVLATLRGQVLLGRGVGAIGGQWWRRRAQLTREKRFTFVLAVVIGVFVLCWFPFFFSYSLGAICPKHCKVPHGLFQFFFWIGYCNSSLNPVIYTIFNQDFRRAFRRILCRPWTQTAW
Chain of CHRM3 (P20309 whole entry): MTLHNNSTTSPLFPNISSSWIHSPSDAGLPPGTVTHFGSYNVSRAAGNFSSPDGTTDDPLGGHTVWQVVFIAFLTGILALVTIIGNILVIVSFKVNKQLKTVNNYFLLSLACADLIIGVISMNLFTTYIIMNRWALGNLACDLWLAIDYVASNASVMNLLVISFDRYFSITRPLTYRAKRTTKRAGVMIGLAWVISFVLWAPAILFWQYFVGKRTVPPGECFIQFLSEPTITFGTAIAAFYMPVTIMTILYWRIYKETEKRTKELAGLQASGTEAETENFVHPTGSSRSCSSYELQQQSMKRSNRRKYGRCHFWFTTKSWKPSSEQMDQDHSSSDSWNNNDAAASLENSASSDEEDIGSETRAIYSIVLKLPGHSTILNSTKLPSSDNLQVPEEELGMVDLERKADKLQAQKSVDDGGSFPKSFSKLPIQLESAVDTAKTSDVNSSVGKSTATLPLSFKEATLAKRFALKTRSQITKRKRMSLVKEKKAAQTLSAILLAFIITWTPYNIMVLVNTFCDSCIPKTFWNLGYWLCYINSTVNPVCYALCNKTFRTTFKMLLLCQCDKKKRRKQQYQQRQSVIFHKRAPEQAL
T1 sequence (P08913 whole entry): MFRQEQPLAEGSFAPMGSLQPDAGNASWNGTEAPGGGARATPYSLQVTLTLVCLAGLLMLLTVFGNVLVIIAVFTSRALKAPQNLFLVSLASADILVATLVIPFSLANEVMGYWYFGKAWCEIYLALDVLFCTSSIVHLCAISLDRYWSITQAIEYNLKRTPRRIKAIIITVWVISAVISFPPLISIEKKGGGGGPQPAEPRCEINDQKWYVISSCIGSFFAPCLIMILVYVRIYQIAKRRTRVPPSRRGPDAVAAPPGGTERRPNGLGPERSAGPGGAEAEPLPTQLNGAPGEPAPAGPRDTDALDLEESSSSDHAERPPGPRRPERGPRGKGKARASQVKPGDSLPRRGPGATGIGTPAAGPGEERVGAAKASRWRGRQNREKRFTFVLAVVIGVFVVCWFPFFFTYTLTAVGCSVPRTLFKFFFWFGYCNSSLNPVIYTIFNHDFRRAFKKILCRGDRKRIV

A word on the IC50: it is the concentration that gives 50% inhibition. In the case of `COC(=O)[C@@H](NC(=O)c1nn(Cc2ccc(F)cc2)c2ccccc12)C(C)C` [AMB-FUBINACA], the IC50 at ADRA2A was found to be 12.1 µM; against ADRA2B, 2.29 µM; against CHRM3, 6.96 µM; on CCR10 it was 12.3 µM; at HCRTR1 (antagonist mode vs EC80 of control agonist, 10-point curve), 8.59 µM; on MRGPRX2 it was 11.8 µM. The figures for the half-maximal inhibitory concentration (IC50) on PTGER4 and at OXTR were 3.13 µM and 12.8 µM, respectively. In addition, the “inhibitory activity at lower concentrations” value against ADRA2B (antagonist mode, 1 μM) was “appreciable inhibitory activity”. Besides, the “inhibitory activity in concentration-response” value at GPR35 is given as “did not produce any clear activity”; against CCR6 it was “Activity was only observed at the highest concentration (30 μM)”; against CCR9 it was “Activity was only observed at the highest concentration (30 μM); also recorded: only inhibited at the highest 30 μM concentration”; against P2RY6, “Activity was only observed at the highest concentration (30 μM)”; against MCHR1, “Activity was only observed at the highest concentration (30 μM); also recorded: only inhibited at the highest 30 μM concentration”; against UTR2, “did not produce any clear activity”. At HCRTR1 (antagonist mode, concentration-response up to 30 μM), this compound gave a maximum inhibition of 73.00%. The “brain concentration relative to plasma” value in [1] is listed as ~ 5 fold.

(Values after paper PMC9798004 (Frontiers in Psychiatry, 2022).)
